Measurements: patent US5157019A, “Serine protease inhibitors” (Monsanto Company, priority 1991, dated 1992)
Ends that are not written are not given here.

Key:
complement activation = assay: Reverse passive arthus reaction (RPAR), histopathology of injection sites; format: in vivo, guinea pigs; design: key: 0 indicating no acute inflamation; 1 indication minimal acute inflammation; 2 indicating mild acute inflammation; 3 indicating moderate acute inflammation; conditions: for Degree of inflammation, mean score, protease inhibitor only: guinea pig, intradermal injection of peptide without antibody
Procedure: These exemplary peptide inhibitors (peptides 13, 7 and 27) were assayed for in vivo activity in inhibiting complement activation using the reverse passive arthus reaction (RPAR). RPAR is a model of complement-mediated damage due to activation via interaction with antigen/antibody complexes. Female guinea pigs (400 gm) were pretreated intracardially with bovine serum albumin and Evans blue dye. Ninety minutes later they received bilateral intradermal injections of peptide inhibitor or control material in the thoracolumbar region. Injection sites were excised postmortem and fixed in 10% buffered formalin for pathological evaluation. The peptides were administered to obtain an initial level of […] in the circulatory system.
The histopathological results are outlined below. The degree of inflammation was scored as follows: 0 indicating no acute inflamation; 1 indication minimal acute inflammation; 2 indicating mild acute inflammation; and 3 indicating moderate acute inflammation.

C1s = target: T1, C1s (Homo sapiens, UniProt P09871); assay: C1s assay by inhibition of fluid phase C4 activation; format: biochemical; conditions: Table X; μM concentration at which protease was inhibited 50%; read-out: IC50 C1S
T1 construct: prepared from pooled human plasma; from tissue; host or cells: pooled human plasma
T1 sequence (P09871 16-688): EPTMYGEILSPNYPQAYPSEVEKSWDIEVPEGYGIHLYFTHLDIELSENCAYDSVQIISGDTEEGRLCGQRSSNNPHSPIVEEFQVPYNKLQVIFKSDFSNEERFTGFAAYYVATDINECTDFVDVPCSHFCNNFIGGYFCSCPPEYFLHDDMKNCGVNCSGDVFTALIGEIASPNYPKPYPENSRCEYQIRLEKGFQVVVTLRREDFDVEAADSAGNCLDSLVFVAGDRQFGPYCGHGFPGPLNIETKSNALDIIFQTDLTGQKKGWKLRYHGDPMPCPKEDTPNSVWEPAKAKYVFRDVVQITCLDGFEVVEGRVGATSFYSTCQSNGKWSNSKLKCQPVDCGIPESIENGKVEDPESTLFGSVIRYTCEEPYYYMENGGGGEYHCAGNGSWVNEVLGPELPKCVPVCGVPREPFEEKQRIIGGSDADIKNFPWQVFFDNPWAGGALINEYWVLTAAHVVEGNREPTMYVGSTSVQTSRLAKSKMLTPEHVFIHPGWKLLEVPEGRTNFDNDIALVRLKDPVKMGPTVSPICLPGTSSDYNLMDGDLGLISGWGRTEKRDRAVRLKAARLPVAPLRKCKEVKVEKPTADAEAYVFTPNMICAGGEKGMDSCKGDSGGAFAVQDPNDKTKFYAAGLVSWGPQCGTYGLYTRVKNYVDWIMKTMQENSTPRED
Procedure: (§1) Highly purified C3, C4, Factor D, Factor B, and C1s were prepared from pooled human plasma. Factors B and C4 were radiolabeled by periodate oxidation of sialic acid residues, followed by reduction with tritiated sodium borohydride. In a representative experiment, a solution of 1.2 mg of factor B in 1.8 ml of PBS was treated with 70 μl of 0.1M NaIO4. After 10 min incubation on ice, excess reagent was removed by filtration over "SEPHADEX®" which is a matrix for gel chromatography (1.0 cm×20 cm). To the protein pool was added 60 μl of NaB[^3 H]4 solution and incubated for 30 min on ice. Labeled protein was separated from excess reagent by desalting or dialysis. Human C4 was radiolabeled in the same manner. Radiolabeled proteins were stored at -70° C. in PBS. The specific radioactivity of ^3 H factor B was about 10,000 CPM/μg and that of ^3 H-C4 was 5,000 CPM/μg.
The cleavage of C4 was studied by incubating 10 μg of tritiated C4 with 3-5 ng of C1s at 37° C. for 30 min in 100 μl of PBS (pH 7.10) containing different concentrations of inhibitor. The reaction was stopped by the addition of 2-mercaptoethanol. The extent of cleavage was analyzed by SDS-polyacrylamide gel electrophoresis. The stained bands corresponding to C4α and C4α' were cut out and sliced. The radioactivity of the fragments was measured by liquid scintillation counting. The percent cleavage of the reaction was calculated as follows: [formula]
(§2) Electrophoresis was carried out under reducing conditions in the Laemmli system using slab gel of 8% polyacrylamide. The gels were stained and destained (Fairbanks et al. Biochemistry (1971) 10:2606).
(§3) The percent inhibition of the reaction was calculated according to the following relationship: [formula]
(§4) A: % cleavage without inhibitor
(§5) B: % cleavage with inhibitor
(§6) The concentration inducing 50% inhibition was obtained by plotting the percent inhibition on a probability graph (National Blank Book Co., No. 12-083) on the ordinate and the log of the inhibitor concentration on the abscissa. From this graph, a 50% inhibition concentration IC50 was obtained and this value was employed to express the activity.

Factor D = target: T2, Factor D (Homo sapiens, UniProt P00746); assay: Factor D assay by inhibition of fluid phase Factor B activation; format: biochemical; conditions: Table X; μM concentration at which protease was inhibited 50%; read-out: IC50 D
T2 construct: prepared from pooled human plasma; from tissue; host or cells: pooled human plasma
T2 sequence (P00746 26-253): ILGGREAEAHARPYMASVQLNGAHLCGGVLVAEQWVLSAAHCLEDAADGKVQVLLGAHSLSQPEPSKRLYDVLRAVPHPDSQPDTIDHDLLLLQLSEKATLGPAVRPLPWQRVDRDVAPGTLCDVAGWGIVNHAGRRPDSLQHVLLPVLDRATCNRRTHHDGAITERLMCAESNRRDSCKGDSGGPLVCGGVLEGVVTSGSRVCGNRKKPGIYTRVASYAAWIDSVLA
Procedure: as §1
The effect of the peptides on Factor D-dependent cleavage of factor B was studied by incubating 3.5 μg of Factor B, 1.5 μg of C3(H2 O) and 0.2 μl of Factor D at 37° C. for 60 min in Mg-PBS containing different concentrations of inhibitor. Uncleaved Factor B and its fragments, Ba and Bb, were first separated by SDS-PAGE and analyzed as described above. The percent cleavage of the reaction was calculated as follows: [formula]
B=radioactivity (CPM) of uncleaved factor B
Bb=radioactivity (CPM) of fragment Bb
Ba=radioactivity (CPM) of fragment Ba
as §2, §3, §4, §5, §6

Thrombin = Thrombin (Homo sapiens, UniProt P00734); assay: Coagulation inhibition assay, thrombin (fibrinogen clotting end point); format: biochemical; conditions: 40 μM peptide
Procedure: Inhibitory activity of subject peptides toward thrombin and Factor Xa were done in the following manner. Mix 100 μL Thrombin (3.125 units/ml, 1.125 μg/ml) in TAB with […] Peptide in TAB and incubate for 1 minute at 37° C. Add 50 μL Fibrinogen (2 mg/ml)and measure clotting end point (in seconds) in a Fibrometer (BBL) TAB=Thrombin Assay Buffer: 0.15M NaCl, 6.6 gm/L PEG-6000, 0.01M Imidazole, 0.01 CaCl2, pH 7.4

Cathepsin G = target: T3, Cathepsin G (Homo sapiens, UniProt P08311); assay: Cathepsin G assay (Suc-Ala-Ala-Pro-Phe-pNA, 410 nm); format: biochemical; conditions: 200 μM peptide (head of Table IX)
T3 construct: purchased Elastin Products Company (EPC) SG-45
T3 sequence (P08311 21-255): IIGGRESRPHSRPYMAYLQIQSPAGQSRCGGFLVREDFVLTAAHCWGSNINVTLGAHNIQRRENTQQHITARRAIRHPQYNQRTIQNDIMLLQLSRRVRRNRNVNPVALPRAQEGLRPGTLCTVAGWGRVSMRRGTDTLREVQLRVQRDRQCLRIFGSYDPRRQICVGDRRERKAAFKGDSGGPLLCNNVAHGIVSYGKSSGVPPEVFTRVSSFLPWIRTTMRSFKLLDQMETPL
Procedure: Reference: Elastin Products Company (EPC) technical data sheet, cathepsin G, No. SG-45.
Method: Spectrophotometric rate determination
A) Buffer; 0.1M Tris, pH 7.5 at 25° C.
B) Substrate; 60 mM Suc-Ala-Ala-Pro-Phe-pNA obtained from Sigma Chemical Company. Solution prepared by dissolving 50 mg substrate in 1.3 ml of 1-methyl-2-pyrrolidinone. Stored at 5° C.
C) Peptide Inhibitors; 200 μM HCl salt. Depending on peptide solubility, dissolved in buffer or DMSO and then buffer added for a final concentration of 10% DMSO.
D) Enzyme; Cathepsin G, EPC SG-45, lot 85117 used for all assays, 0.0077 mg protein per mg solid determined by supplier by Bradford method. Enzyme was dissolved in buffer at a concentration of approx. 5 mg/ml solid. Solution stored on ice, used within 2 hours.
Pipetted the following into semi-micro quartz cuvettes: 0.3 ml buffer, 0.15 ml peptide solution and 0.5 ml of substrate solution. Equilibrate for 5 min. at 25° C., then add 0.05 ml of enzyme solution and monitor the release of pNA spectrophotometrically at 410 nm for at least 3 minutes. The controls contain either 0.45 ml of buffer or 20% DMSO in buffer (for a final concentration of 10% DMSO).
The rate (O.D./min) is obtained as an average over 3 minutes. [formula]

[1] = system: classical pathway of complement activation; assay: Hemolytic assay, classical pathway (lysis of EA cells by normal human serum); format: cell-based; conditions: 25 μM peptide
Method: (§7) METHOD: Complement activation of the classical and alternative pathways is measured by lysis of EA and ER cells (respectively) after incubation with serum. Hemolysis is quantitated spectrophotometrically by the absorbance of hemoglobin at 415 nm.
EA cells: Sheep erythrocyte-antibody conjugates stored at 10^9 cells/ml in DGVB (Veronal buffer plus Ca^++ and Mg,^++, 2.5% w/v dextrose and 0.05% w/v gelatin, 0.01% sodium azide)^1
(§8) h NHS: Normal human serum incubated at 56° C. for 1 hour to inactivate complement components.
(§9) B) Wash EA cell (classical pathway) and ER cell (alternative pathway) suspensions with at least an equal volume of PBS^++ (Phosphate buffered saline, with 0.15 mM Ca^++ and 0.5 mM Mg^++). Spin at 2000 rpm for 5 minutes, decant supernatant and resuspend cells. Wash cells twice or until supernatant is obviously clear of any lysed cellular debris.
C) After the final wash, cells should be resuspended in an appropriate volume of PBS^++ so there are approximately 5×10^8 cells/ml. Dilute cell suspension 1:30 with distilled water and determine the absorbance at 541 nm spectrophotometrically. An adsorbance of 0.175 indicates 5×10^8 cells/ml. […]
(§10) G) Read absorbance (Abs) of the supernatant at 415 nm to determine cell lysis. […]
(§11) c) Dilute NHS and h NHS initially so that 100 ul of that dilution in a total of 250 μl will equal the final dilution calculated in the titer assay. […]

[2] = system: alternative pathway of complement activation; assay: Hemolytic assay, alternative pathway (lysis of ER cells by normal human serum); format: cell-based; conditions: 25 μM peptide
Method: as §7
ER cells: Rabbit erythrocytes stored at 10^9 in Alsevers buffer, 0.01% sodium azide.^2
as §8, §9
C) After the final wash, cells should be resuspended in an appropriate volume of PBS^++ so there are approximately 5×10^8 cells/ml. Dilute cell suspension 1:30 with distilled water and determine the absorbance at 541 nm spectrophotometrically. An adsorbance of 0.175 indicates 5×10^8 cells/ml. Adjust the volume of the cell suspension accordingly with PBS^++ to get a final concentration of 2.5×10^8 cells/ml. […]
as §10, §11

| Substance | Degree of inflammation, mean score, protease inhibitor only (complement activation) | IC50 (C1s) [µM] | IC50 (Factor D) [µM] | inhibition at 40 µM (Thrombin) [%] | inhibition at 200 µM (Cathepsin G) [%] | % inhibition, classical pathway (CP) [1] [%] | Degree of inflammation, mean score, antibody plus protease inhibitor (complement activation; guinea pig RPAR, intradermal anti-bovine serum albumin plus peptide, antibody only mean score 3) | % inhibition, alternative pathway (AP) [2] [%] |
| --- | --- | --- | --- | --- | --- | --- | --- | --- |
| AGRSLNPNRVTFKANRPFLVFI [Peptide 7] | 0 | 39 | 145 | 50 | 28 | – | – | – |
| GVRGPRVVERVTFKANRPFLVFI-OH [Peptide 13] | 0 | – | – | – | – | 75 | 1 | 61 |
